Assays:
Format in all cases: in vivo
[1] = test system: Abutilon theophrasti; assay: Pre-emergence herbicidal efficacy, ABUTH; conditions: Table B1, application rate 320 g/ha, scored visually after about 3 weeks vs untreated controls
Procedure, shortened: (§1)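 Seeds were sown in pots and covered with soil; WP or EC formulations were sprayed onto the soil surface as aqueous suspension or emulsion with 0.5% additive. Pots were kept in a greenhouse, and after about 3 weeks damage was rated visually as percent versus untreated controls (100% = plants dead, 0% = like control).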

[2] = test system: Setaria viridis; assay: Pre-emergence herbicidal efficacy, SETVI; conditions: Table B1, application rate 320 g/ha, scored visually after about 3 weeks vs untreated controls
Procedure, shortened: as §1

[3] = test system: Matricaria inodora; assay: Pre-emergence herbicidal efficacy, MATIN; conditions: Table B1, application rate 320 g/ha, scored visually after about 3 weeks vs untreated controls
Procedure, shortened: as §1

[4] = test system: Veronica persica; assay: Post-emergence herbicidal efficacy, VERPE; conditions: application rate 320 g/ha
Procedure, shortened: (§2)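 Greenhouse plants in sandy loam were sprayed at the one-leaf stage, 2–3 weeks after sowing. After about 3 weeks, activity was rated visually against untreated controls, from 0% (like control) to 100% (plants dead).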

[5] = test system: Abutilon theophrasti; assay: Post-emergence herbicidal efficacy, ABUTH; conditions: Table B6, one-leaf stage, application rate 320 g/ha, rated visually after about 3 weeks vs untreated controls
Text: (§3) ABUTH: Abutilon theophrasti ALOMY: Alopecurus myosuroides AMARE: Amaranthus retroflexus AVEFA: Avena fatua CYPES: Cyperus esculentus ECHCG: Echinochloa crus-galli LOLMU: Lolium multiflorum MATIN: Matricaria inodora PHBPU: Ipomoea purpurea POLCO: Polygonum convolvulus SETVI: Setaria viridis STEME: Stellaria media VERPE: Veronica persica VTOTR: Viola tricolor
(§4) C.2 Post-Emergence Herbicidal Action and Crop Plant Compatibility
(§5) Seeds of monocotyledonous and dicotyledonous weeds and crop plants are placed in sandy loam in plastic or organic planting pots, covered with soil and cultivated in a greenhouse under controlled growth conditions. 2 to 3 weeks after sowing, the test plants are treated at the one-leaf stage. The compounds of the invention, formulated in the form of wettable powders (WP) or as emulsion concentrates (EC), are then sprayed onto the green parts of the plants as aqueous suspension or emulsion with addition of 0.5% additive at a water application rate of […] (converted). After the test plants had been kept in the greenhouse under optimum growth conditions for about 3 weeks, the activity of the preparations is rated visually in comparison to untreated controls. For example, 100% activity=the plants have died, 0% activity=like control plants.

[6] = test system: Viola tricolor; assay: Pre-emergence herbicidal efficacy, VIOTR; conditions: Table B1, application rate 320 g/ha, scored visually after about 3 weeks vs untreated controls
Procedure, shortened: as §1

[7] = test system: Polygonum convolvulus; assay: Pre-emergence herbicidal efficacy, POLCO; conditions: Table B1, application rate 320 g/ha, scored visually after about 3 weeks vs untreated controls
Procedure, shortened: as §1

[8] = test system: Setaria viridis; assay: Post-emergence herbicidal efficacy, SETVI; conditions: Table B6, one-leaf stage, application rate 320 g/ha, rated visually after about 3 weeks vs untreated controls
Text: as §3, §4, §5

[9] = test system: Echinochloa crus-galli; assay: Pre-emergence herbicidal efficacy, ECHCG; conditions: Table B1, application rate 320 g/ha, scored visually after about 3 weeks vs untreated controls
Procedure, shortened: as §1

[10] = test system: Stellaria media; assay: Pre-emergence herbicidal efficacy, STEME; conditions: Table B1, application rate 320 g/ha, scored visually after about 3 weeks vs untreated controls
Procedure, shortened: as §1

[11] = test system: Amaranthus retroflexus; assay: Post-emergence herbicidal efficacy, AMARE; conditions: application rate 320 g/ha
Text: as §3, §4, §5

[12] = test system: Lolium rigidum; assay: Pre-emergence herbicidal efficacy, LOLRI; conditions: Table B1, application rate 320 g/ha, scored visually after about 3 weeks vs untreated controls
Procedure, shortened: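 Seeds sown in pots and covered with soil. Greenhouse-grown about 3 weeks, then visually scored as % activity vs untreated controls (100% = dead, 0% = like control).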

[13] = test system: Amaranthus retroflexus; assay: Pre-emergence herbicidal efficacy, AMARE; conditions: Table B1, application rate 320 g/ha, scored visually after about 3 weeks vs untreated controls
Procedure, shortened: as §1

[14] = test system: Veronica persica; assay: Pre-emergence herbicidal efficacy, VERPE; conditions: Table B1, application rate 320 g/ha, scored visually after about 3 weeks vs untreated controls
Procedure, shortened: as §1

[15] = test system: harmful plants; assay: Pre-emergence herbicidal action; conditions: applied pre-emergence
Text: C.1 Pre-Emergence Herbicidal Action and Crop Plant Compatibility
Seeds of monocotyledonous and dicotyledonous weed plants and crop plants are placed in plastic or organic planting pots and covered with soil. The compounds of the invention, formulated in the form of wettable powders (WP) or as emulsion concentrates (EC), are then applied onto the surface of the covering soil as aqueous suspension or emulsion with addition of 0.5% additive at a water application rate of […] (converted). After the treatment, the pots are placed in a greenhouse and kept under good growth conditions for the trial plants. After about 3 weeks, the effect of the preparations is scored visually in comparison with untreated controls as percentages. For example, 100% activity=the plants have died, 0% activity=like control plants.

[16] = test system: Viola tricolor; assay: Post-emergence herbicidal efficacy, VIOTR; conditions: application rate 320 g/ha, rated visually after about 3 weeks (Table B5)
Procedure, shortened: as §2

[17] = test system: harmful plants; assay: Post-emergence herbicidal action; conditions: applied post-emergence
Method: as §4, §5

[18] = test system: Stellaria media; assay: Post-emergence herbicidal efficacy, STEME; conditions: application rate 320 g/ha, rated visually after about 3 weeks
Text: as §3, §4, §5

[19] = test system: Echinochloa crus-galli; assay: Post-emergence herbicidal efficacy, ECHCG; conditions: application rate 320 g/ha, rated visually after about 3 weeks
Text: as §3, §4, §5

[20] = test system: Lolium rigidum; assay: Post-emergence herbicidal efficacy, LOLRI; conditions: application rate 320 g/ha, rated visually after about 3 weeks
Method: as §4, §5

[21] = Table B6, one-leaf stage, rated visually after about 3 weeks vs untreated controls

Row | Compound | Herbicidal efficacy against ABUTH [1] [%] | Herbicidal efficacy against SETVI [2] [%] | Herbicidal efficacy against MATIN [3] [%] | Herbicidal efficacy against VERPE [4, 21] [%] | Herbicidal efficacy against ABUTH [5] [%] | Herbicidal efficacy against VIOTR [6] [%] | Herbicidal efficacy against POLCO [7] [%] | Herbicidal efficacy against SETVI [8] [%] | Herbicidal efficacy against ECHCG [9] [%] | Herbicidal efficacy against STEME [10] [%] | Herbicidal efficacy against AMARE [11, 21] [%] | Herbicidal efficacy against LOLRI [12] [%] | Herbicidal efficacy against AMARE [13] [%] | Herbicidal efficacy against VERPE [14] [%] | herbicidal efficacy against harmful plants [15] | also measured
1 | CC(=O)N1CCn2nc(N[C@@H]3CCCc4ccc(C)cc43)nc2C1 [Example I-180] | 100 | 100 | 100 | 80 | 80 | 100 | 100 | 80 | 100 | 100 | 80 | 100 | 100 | 100 |  | 
2 | Cc1ccc2c(c1)[C@H](Nc1nc3n(n1)CCN(S(=O)(=O)C(C)C)C3)CCC2 [Example I-199] | 100 | 100 | 100 |  |  | 100 | 100 |  | 100 | 100 |  | 100 | 100 | 100 | very good herbicidal efficacy | 
3 | Cc1ccc2c(c1)C(Nc1nc3n(n1)CCCCS3)CCC2 (centres unmarked) [Example I-214] | 100 | 100 | 100 | 100 | 80 | 100 | 100 | 100 | 100 | 100 | 80 | 100 | 100 | 100 |  | 
4 | Cc1ccc2c(c1)C(Nc1nc3n(n1)CCC(=O)N3C)CCC2 (centres unmarked) [Example I-231] | 100 | 100 | 100 |  |  | 100 | 100 |  | 100 | 100 |  | 100 | 100 | 100 | very good herbicidal efficacy | Herbicidal efficacy against VIOTR [16]: 90%; herbicidal efficacy against harmful plants [17]: very good herbicidal efficacy; Herbicidal efficacy against STEME [18]: 80%; Herbicidal efficacy against ECHCG [19]: 100%; Herbicidal efficacy against VERPE ([4]; rated visually after about 3 weeks (Table B5)): 90%; Herbicidal efficacy against AMARE ([11]; rated visually after about 3 weeks): 80%; Herbicidal efficacy against LOLRI [20]: 80%
5 | Cc1ccc2c(c1)[C@H](Nc1nc3n(n1)CCCCS3)CCO2 [Example I-377] | 100 | 100 | 100 | 90 | 80 | 100 | 100 | 90 | 100 | 100 | 80 | 100 | 100 | 100 |  | 

Reference: patent US20200331904A1, “3-AMINO-[1,2,4]-TRIAZOLE DERIVATIVES AND THEIR USE FOR CONTROLLING UNDESIRED PLANT GROWTH” (Bayer CropScience Aktiengesellschaft, priority 2017, published 2020)
